In one data set the target is VIM-1 (Pseudomonas aeruginosa, UniProt A0A0F7KYQ8). The data set can be described thus: biochemical. The format is biochemical.
Data set [1] concerns NDM-1-producing Escherichia coli (DH5α/pLBII-NDM-1). Kind of data set: Imipenem MIC on laboratory strain. The data set is classed as cell-based. To be noted: tested at concentrations up to 1 mM; data not shown.
Data set [2] has as its target Aeromonas hydrophila CphA MBL. The arrangement: method as in PMID 17307979. To be noted: read-out: Ki [inhibition constant] CphA; cited from earlier work.
For the next data set, the target named is IMP-1 (Serratia marcescens, UniProt P52699). Kind of data set: biochemical. The data set is classed as biochemical.
Sequence of IMP-1 (P52699 19-246, looked up, species assumed): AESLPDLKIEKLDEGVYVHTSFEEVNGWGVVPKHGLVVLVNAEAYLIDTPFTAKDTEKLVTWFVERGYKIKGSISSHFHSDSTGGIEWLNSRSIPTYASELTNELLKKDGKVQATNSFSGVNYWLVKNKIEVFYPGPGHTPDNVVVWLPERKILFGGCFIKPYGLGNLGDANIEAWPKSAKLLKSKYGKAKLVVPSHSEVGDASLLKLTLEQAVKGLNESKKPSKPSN
Data set [3] addresses T1, VIM-2 (Escherichia coli, UniProt Q5U7L7). Kind of data set: biochemical.
The target of a further data set is NDM-1 (Klebsiella pneumoniae, UniProt C7C422). Kind of data set: biochemical. The format is biochemical. The following applies: NDM-1 IC50, 300 μM imipenem, 10 mM HEPES pH 7.5, 25 °C; average of at least two independent assays.
Sequence of NDM-1 (C7C422 29-270, looked up, species assumed): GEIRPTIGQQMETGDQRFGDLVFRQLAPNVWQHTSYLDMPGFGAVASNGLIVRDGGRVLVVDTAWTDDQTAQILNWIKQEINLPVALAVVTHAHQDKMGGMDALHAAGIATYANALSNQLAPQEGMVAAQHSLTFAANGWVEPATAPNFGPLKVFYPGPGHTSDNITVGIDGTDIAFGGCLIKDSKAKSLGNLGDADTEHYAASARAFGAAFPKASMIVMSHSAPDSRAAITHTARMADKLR
The test system of data set [4] is IMP-1-producing strain K. pneumoniae NTBC062. The data set can be described thus: Whole-cell meropenem potentiation, CLSI broth microdilution MIC. To be noted: inhibitor present at 100 μM; K. pneumoniae NTBC062 (IMP-1); meropenem alone 4 μg/mL. The format is cell-based, Klebsiella pneumoniae. The method, then: (§1) Minimal inhibitory concentrations (MIC) were determined using the Clinical Laboratory Standards Institute (CLSI) broth microdilution procedure. MBL-positive Enterobacteriaceae clinical isolates tested in the susceptibility study included NDM-1-producing strain E. coli NTBC121, VIM-1-producing strain K. pneumoniae NTBC055, and IMP-1-producing strain K. pneumoniae NTBC062. (Individual MICs for all strains tested are presented in Table 2 and Table 1 in the Supporting Information).

Data set [5] concerns VIM-1-producing strain Klebsiella pneumoniae NTBC055. The description is as above. To be noted: inhibitor present at 100 μM; K. pneumoniae NTBC055 (VIM-1); meropenem alone 16 μg/mL. The format is cell-based. The method, then: as §1
In data set [6] the test system is NDM-1-producing strain Escherichia coli NTBC121. The data set is described as above. To be noted: inhibitor present at 100 μM; E. coli NTBC121 (NDM-1); meropenem alone 32 μg/mL. The format is cell-based. The method, then:
as §1

Data set [7] concerns the target T1, VIM-2. To be noted: tested up to 200 μM.
The subject of data set [8] is NDM- and VIM-producing clinical strains. Further details: method as in PMID 29530861. To be noted: cited from earlier work.
Another data set has as its system E. coli (IR3). The arrangement: method as in PMID 29530861. To be noted: E. coli (IR3) murine thigh infection model, in combination with meropenem; cited from earlier work.
Data set [9] can be described thus: Kinetic solubility in PBS pH 7.4. The data set is classed as physicochemical. The following applies: for solubility at 4 h: phosphate-buffered saline, pH 7.4, aqueous buffer, thermodynamic from solid. The method, then:
This was determined by vigorous stirring (1200 rpm) of a 20 mg/mL mixture of the test compound in phosphate-buffered saline (PBS) at pH 7.4 for 4 h. The mixture was then centrifuged for 20 min at 10 000 rpm and the supernatant further processed by filtration. The concentration of the test compound in the filtrate was then determined by high-performance liquid chromatography (UV analysis) by comparison to a standard calibration curve of the test compound.

Converted amounts (≈) assume the structure as drawn. “And” between values parts separate entries of the source, which are not always exact repeats. Equal entries are not always repeated. Where two headings read alike, the source gives them in different places.

For `O=C(O)c1ccccn1` [Compound 1, pyridine-2-carboxylic acid, reference compound], the IC50 on VIM-1 is over 200 µM; against IMP-1, over 200 µM; against VIM-2 [3], over 200 µM; against NDM-1 it was 17.1 µM. Besides, the “inhibition of VIM-1, in words” value against VIM-1 (tested up to 200 μM) is listed as “no significant activity”. For the same compound, the “reduction of imipenem MIC” value in data set [1] was “no reduction”. Moreover, the inhibitory constant (Ki) in data set [2] is 6 µM. The “inhibition of IMP-1, in words” value against IMP-1 (tested up to 200 μM) was “no significant activity”.
With `O=C(O)c1ncccc1NS(=O)(=O)c1ccccc1` [Compound 32], the IC50 against VIM-1 was over 200 µM; at IMP-1 it was over 200 µM; at VIM-2 [3], 1.9 µM; against NDM-1, 49.9 µM. The “MICMEM (meropenem MIC in presence of inhibitor) vs NTBC062” value in data set [4] came out at 2 µg/mL. For the same compound, in data set [5], the “MICMEM (meropenem MIC in presence of inhibitor) vs NTBC055” value stood at 4 µg/mL. For the same compound, in [6], the “MICMEM (meropenem MIC in presence of inhibitor) vs NTBC121” value was 16 µg/mL. Moreover, the “inhibition of VIM-2, in words” value against VIM-2 [7] is recorded as “strong inhibition”.
Turning to `O=C(O)c1ncccc1NS(=O)(=O)Cc1cc(Cl)cc(Cl)c1` [Compound 43], the IC50 at VIM-1 came to 57.2 µM; against IMP-1 it was 180 µM; against VIM-2 [3], 0.3 µM; at NDM-1, 18.6 µM. Besides, the “MICMEM (meropenem MIC in presence of inhibitor) vs NTBC062” value in [4] is 1 µg/mL. Besides, the “MICMEM (meropenem MIC in presence of inhibitor) vs NTBC055” value in data set [5] is 1 µg/mL. Further, the “MICMEM (meropenem MIC in presence of inhibitor) vs NTBC121” value in [6] was 8 µg/mL. For the same compound, the “inhibition of VIM-2, in words” value on VIM-2 [7] is “strong inhibition”.
For the compound `O=C(O)c1ncsc1NS(=O)(=O)c1cccnc1` [Compound 76, 5-(Pyridine-3-sulfonamido)-1,3-thiazole-4-carboxylic acid], in data set [8] (listed as ANT431), the “effective inhibitor concentration for potentiation of meropenem” value is 28 μM and 8 μg/mL. Further, the “potentiation of meropenem activity, in words” value in data set [8] (panel of 94 randomly selected NDM- and VIM-producing clinical strains) is given as “potentiate meropenem activity”. The “MICMEM (meropenem MIC in presence of inhibitor) vs NTBC121” value in data set [6] amounted to 0.06 µg/mL. In addition, the “efficacy with meropenem in thigh infection model, in words” value in the data set with E. coli (IR3) is reported as “restore the efficacy of meropenem”. The solubility at 4 h in data set [9] (acid form, read-out: solubility) is 2.4 mg/mL (≈ 8.41 mM); in data set [9] (sodium salt, read-out: solubility (Na salt)), about 20 mg/mL. In [9] (sodium salt), the “solubility (Na salt)” value stood at 16.9 mg/mL. For the same compound, the IC50 against IMP-1 came to 54 µM; on NDM-1, 2.67 µM.

These data come from article PMC6332448, “SAR Studies Leading to the Identification of a Novel Series of Metallo-β-lactamase Inhibitors for the Treatment of Carbapenem-Resistant Enterobacteriaceae Infections That Display Efficacy in an Animal Infection Model” (ACS Infectious Diseases, 2018).
